This note sets out measurements from PMC7224190, “Pharmacological inhibition of PRMT7 links arginine monomethylation to the cellular stress response” (Nature Communications, 2020).

Holding throughout (assay): biochemical
Common to all, as to set-up: radiometric methyltransferase selectivity assay with tritiated SAM, per cent activity
Holding throughout (details): read-out: % of control remaining

One assay concerns the target T1, NSD2 (Homo sapiens, UniProt O96028).
T1 sequence (O96028 1-1365): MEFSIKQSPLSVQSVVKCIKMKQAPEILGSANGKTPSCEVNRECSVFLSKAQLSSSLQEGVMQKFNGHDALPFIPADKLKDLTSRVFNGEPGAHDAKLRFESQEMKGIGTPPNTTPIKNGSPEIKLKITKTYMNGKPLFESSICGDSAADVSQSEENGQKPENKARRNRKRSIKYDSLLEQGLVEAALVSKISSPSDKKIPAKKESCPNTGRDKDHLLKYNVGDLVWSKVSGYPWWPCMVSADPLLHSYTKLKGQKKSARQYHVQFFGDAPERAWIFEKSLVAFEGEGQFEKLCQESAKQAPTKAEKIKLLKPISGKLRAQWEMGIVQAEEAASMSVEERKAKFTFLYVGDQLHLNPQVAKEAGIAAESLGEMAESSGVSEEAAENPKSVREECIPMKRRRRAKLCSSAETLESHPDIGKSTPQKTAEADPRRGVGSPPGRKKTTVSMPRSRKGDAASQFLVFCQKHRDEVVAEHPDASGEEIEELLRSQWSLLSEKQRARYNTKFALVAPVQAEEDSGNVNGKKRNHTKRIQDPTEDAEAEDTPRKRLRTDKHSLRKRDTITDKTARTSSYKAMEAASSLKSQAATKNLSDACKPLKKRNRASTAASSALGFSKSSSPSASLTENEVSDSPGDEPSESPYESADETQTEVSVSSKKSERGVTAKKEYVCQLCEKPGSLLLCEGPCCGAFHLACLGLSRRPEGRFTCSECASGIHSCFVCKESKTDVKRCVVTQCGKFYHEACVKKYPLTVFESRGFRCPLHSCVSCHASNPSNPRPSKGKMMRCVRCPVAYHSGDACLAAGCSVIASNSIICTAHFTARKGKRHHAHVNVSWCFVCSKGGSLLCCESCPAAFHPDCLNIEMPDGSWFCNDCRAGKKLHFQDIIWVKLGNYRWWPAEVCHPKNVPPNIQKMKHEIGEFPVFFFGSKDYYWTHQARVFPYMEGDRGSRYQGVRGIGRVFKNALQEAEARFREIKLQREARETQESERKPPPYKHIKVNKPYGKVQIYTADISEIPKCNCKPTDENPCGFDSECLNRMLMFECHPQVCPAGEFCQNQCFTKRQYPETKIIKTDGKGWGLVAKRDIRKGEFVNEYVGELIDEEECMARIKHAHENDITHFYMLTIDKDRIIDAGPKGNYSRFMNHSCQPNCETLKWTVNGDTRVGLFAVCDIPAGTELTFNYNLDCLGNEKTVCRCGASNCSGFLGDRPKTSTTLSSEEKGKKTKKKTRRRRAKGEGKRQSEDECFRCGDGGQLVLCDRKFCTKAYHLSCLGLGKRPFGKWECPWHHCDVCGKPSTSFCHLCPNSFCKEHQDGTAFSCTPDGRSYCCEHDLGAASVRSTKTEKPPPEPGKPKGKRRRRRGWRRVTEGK
The method, boiled down:
(§1)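 Radiometric methyltransferase assays with ³H-SAM and substrate near apparent Km, compound tested at 1 and 10 μM. Methyl incorporation into biotinylated substrate read by scintillation proximity after guanidine quench; no-compound = 100%, no-enzyme = 0% activity.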

The target in another assay is T2, SETD8 (Homo sapiens, UniProt Q9NQR1).
T2 construct: gene KMT5A
T2 sequence (Q9NQR1 1-393): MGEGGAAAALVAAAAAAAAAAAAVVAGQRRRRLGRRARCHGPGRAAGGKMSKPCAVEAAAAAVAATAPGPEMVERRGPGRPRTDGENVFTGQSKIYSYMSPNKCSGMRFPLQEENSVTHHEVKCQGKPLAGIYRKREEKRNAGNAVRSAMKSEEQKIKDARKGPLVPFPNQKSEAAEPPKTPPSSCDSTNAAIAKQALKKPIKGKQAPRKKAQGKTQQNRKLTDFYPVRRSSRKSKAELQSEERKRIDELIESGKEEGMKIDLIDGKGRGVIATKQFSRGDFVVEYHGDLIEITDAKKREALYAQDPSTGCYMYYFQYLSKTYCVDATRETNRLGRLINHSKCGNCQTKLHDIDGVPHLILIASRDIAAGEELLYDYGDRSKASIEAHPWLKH
The method, boiled down:
as §1

The next assay deals with SMYD2 (Homo sapiens, UniProt Q9NRG4). The method, boiled down:
as §1

Chain of SMYD2 (Q9NRG4 whole entry): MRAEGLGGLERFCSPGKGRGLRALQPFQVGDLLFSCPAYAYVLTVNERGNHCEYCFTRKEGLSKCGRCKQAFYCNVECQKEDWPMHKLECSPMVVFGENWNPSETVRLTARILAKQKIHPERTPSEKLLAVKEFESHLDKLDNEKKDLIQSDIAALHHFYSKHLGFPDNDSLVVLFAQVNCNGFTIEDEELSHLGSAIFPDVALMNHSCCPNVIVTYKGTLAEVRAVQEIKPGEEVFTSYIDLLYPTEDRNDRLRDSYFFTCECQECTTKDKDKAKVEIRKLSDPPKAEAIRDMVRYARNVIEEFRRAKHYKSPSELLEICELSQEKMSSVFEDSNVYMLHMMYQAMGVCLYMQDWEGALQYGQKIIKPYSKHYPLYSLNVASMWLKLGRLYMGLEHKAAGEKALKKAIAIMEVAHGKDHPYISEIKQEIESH

On to `CC1(C)O[C@@H]2[C@H](O1)[C@@H](CSCCCCNCc1cccc(-c3ccc(Cl)cc3)c1)O[C@H]2n1cnc2c(N)ncnc21` [SGC8158N], for which the values for the remaining activity at 1 µM at NSD2, on SETD8 and at SMYD2 were 92%, 99% and 105%, respectively. The remaining activity at 10 µM came out at 97% at NSD2, 100% at SETD8 and 104% on SMYD2.

Regarding `Nc1ncnc2c1ncn2[C@@H]1O[C@H](CSCCCCNCc2cccc(-c3ccc(Cl)cc3)c2)[C@@H](O)[C@H]1O` [SGC8158], the results for the remaining activity at 1 µM on NSD2, at SETD8 and at SMYD2 were 106%, 101% and 101%, respectively. Moreover, the remaining activity at 10 µM is 101% on NSD2, 102% on SETD8 and 84% at SMYD2.
